Data: patent US9113629B2, “4-amino-6-(4-substituted-phenyl)-picolinates and 6-amino-2-(4-substituted-phenyl)-pyrimidine-4-carboxylates and their use as herbicides” (DOW AGROSCIENCES LLC, priority 2013, dated 2015)
Where two headings read alike, the source gives them in different places.

Columns and labels:
[1] = system: Key Broadleaf Weed and Crop Species; assay: Post-emergent Test II herbicidal activity (Table 5); assay type: in vivo; conditions: post-emergence, 336 h, 14 days after application; for pest or weed control at 70 g/ha: application rate 70 g ai/ha; for pest or weed control at 140 g/ha: application rate 140 g ai/ha
In short: (§1)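 Plants grown in Metro-Mix 360 (pH 6.0–6.8) in a greenhouse (~15 h photoperiod, 23–29 °C day) to first or second true leaf stage, then sprayed with compound in acetone/DMSO/aqueous crop-oil-surfactant carrier at 187 L/ha by track sprayer. Injury visually scored 0–100% versus untreated plants after 14 d.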

[2] = system: Key Grass and Sedge Weeds as well as Grass Crops; assay: Post-emergent Test II herbicidal activity (Table 6); assay type: in vivo; conditions: post-emergence, 336 h; for pest or weed control at 70 g/ha: 70 g ai/ha; for pest or weed control at 140 g/ha: 140 g ai/ha
In short: as §1

[3] = ABUTH: velvetleaf (Abutilon theophrasti), read-out: Visual Growth Reduction (%) 14 Days After Application, ABUTH
[4] = AMARE: redroot pigweed (Amaranthus retroflexus), read-out: Visual Growth Reduction (%) 14 Days After Application, AMARE
[5] = BRSNN: oilseed-rape, canola (Brassica napus), read-out: Visual Growth Reduction (%) 14 Days After Application, BRSNN
[6] = CHEAL: lambsquarters (Chenopodium album), read-out: Visual Growth Reduction (%) 14 Days After Application, CHEAL
[7] = EPHHL: wild poinsettia (Euphorbia heterophylla), read-out: Visual Growth Reduction (%) 14 Days After Application, EPHHL
[8] = HELAN: sunflower (Helianthus annuus), read-out: Visual Growth Reduction (%) 14 Days After Application, HELAN
[9] = VIOTR: wild pansy (Viola tricolor), read-out: Visual Growth Reduction (%) 14 Days After Application, VIOTR
[10] = CYPES: yellow nutsedge (Cyperus esculentus), read-out: Visual Growth Reduction (%) 14 Days After Application, CYPES
[11] = DIGSA: crabgrass (Digitaria sanguinalis), read-out: Visual Growth Reduction (%) 14 Days After Application, DIGSA
[12] = ECHCG: barnyardgrass (Echinochloa crus-galli), read-out: Visual Growth Reduction (%) 14 Days After Application, ECHCG
[13] = ORYSA: rice (Oryza sativa), crop, read-out: Visual Growth Reduction (%) 14 Days After Application, ORYSA
[14] = SETFA: giant foxtail (Setaria faberi), read-out: Visual Growth Reduction (%) 14 Days After Application, SETFA
[15] = SORVU: grain sorghum (Sorghum vulgare), read-out: Visual Growth Reduction (%) 14 Days After Application, SORVU
[16] = TRZSS (wheat, Triticum aestivum), crop, read-out: Visual Growth Reduction (%) 14 Days After Application, TRZSS
[17] = ZEAMX: maize, corn (Zea mays), crop, read-out: Visual Growth Reduction (%) 14 Days After Application, ZEAMX

Question: Which pest or weed control at 70 g/ha [1, 3] does the source give for `Nc1c(F)c(-c2ccc(I)cc2)nc(C(=O)O)c1Cl` [Compound 45, 4-amino-3-chloro-5-fluoro-6-(4-iodophenyl)picolinic acid] here?
Answer: 95 to 100%

Question: And the pest or weed control at 140 g/ha [1, 3]?
Answer: 95 to 100%

Question: What about the pest or weed control at 70 g/ha [1, 4] of the same molecule?
Answer: 95 to 100%

Question: What about the pest or weed control at 140 g/ha [1, 4] of the same molecule?
Answer: 95 to 100%

Question: What about the pest or weed control at 70 g/ha [1, 5] of the same molecule?
Answer: 95 to 100%

Question: And the pest or weed control at 140 g/ha [1, 5]?
Answer: 95 to 100%

Question: And the pest or weed control at 70 g/ha [1, 6]?
Answer: 95 to 100%

Question: And the pest or weed control at 140 g/ha [1, 6]?
Answer: 95 to 100%

Question: And the pest or weed control at 70 g/ha [1, 7]?
Answer: 95 to 100%

Question: And the pest or weed control at 140 g/ha [1, 7]?
Answer: 95 to 100%

Question: And the pest or weed control at 70 g/ha [1, 8]?
Answer: 95 to 100%

Question: What about the pest or weed control at 140 g/ha [1, 8] of the same molecule?
Answer: 95 to 100%

Question: What about the pest or weed control at 70 g/ha [1, 9] of the same molecule?
Answer: 85 to 94%

Question: And the pest or weed control at 140 g/ha [1, 9]?
Answer: 95 to 100%

Question: And the pest or weed control at 70 g/ha [2, 10]?
Answer: 85 to 94%

Question: And the pest or weed control at 140 g/ha [2, 10]?
Answer: 95 to 100%

Question: What about the pest or weed control at 70 g/ha [2, 11] of the same molecule?
Answer: 85 to 94%

Question: What about the pest or weed control at 140 g/ha [2, 11] of the same molecule?
Answer: 85 to 94%

Question: And the pest or weed control at 70 g/ha [2, 12]?
Answer: 95 to 100%

Question: What about the pest or weed control at 140 g/ha [2, 12] of the same molecule?
Answer: 95 to 100%

Question: What about the pest or weed control at 70 g/ha [2, 13] of the same molecule?
Answer: 45 to 59%

Question: What about the pest or weed control at 140 g/ha [2, 13] of the same molecule?
Answer: 60 to 74%

Question: What about the pest or weed control at 70 g/ha [2, 14] of the same molecule?
Answer: 85 to 94%

Question: And the pest or weed control at 140 g/ha [2, 14]?
Answer: 85 to 94%

Question: And the pest or weed control at 70 g/ha [2, 15]?
Answer: 60 to 74%

Question: And the pest or weed control at 140 g/ha [2, 15]?
Answer: 95 to 100%

Question: And the pest or weed control at 70 g/ha [2, 16]?
Answer: 60 to 74%

Question: What about the pest or weed control at 140 g/ha [2, 16] of the same molecule?
Answer: 75 to 84%

Question: And the pest or weed control at 70 g/ha [2, 17]?
Answer: 85 to 94%

Question: And the pest or weed control at 140 g/ha [2, 17]?
Answer: 95 to 100%
